According to the supplement of paper PMC12317010:

Assay: collision cross section in nitrogen (drift tube, single-field); higher = larger gas-phase ion size
[1] = ion source: ESI, ion mode: Positive, ion type: [M]+ (permanent cation)
[2] = ion type: [M+H], ion source: APCI, ion mode: Positive
[3] = ion type: [M+H], ion source: ESI, ion mode: Positive
[4] = ion type: [M+Na], ion source: ESI, ion mode: Positive
[5] = ion type: [M-H], ion source: ESI, ion mode: Negative
[6] = ion type: [M+], ion source: APCI, ion mode: Positive
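Also: chemical standards at 10 µM analysed by drift tube IMS-QTOF MS in about 3.95 torr nitrogen, mean of duplicate injections differing ≤1%, mass error below 10 ppm.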

Row | collision cross section in nitrogen [1] | collision cross section in nitrogen [2] | collision cross section in nitrogen [3] | collision cross section in nitrogen [4] | collision cross section in nitrogen [5] | collision cross section in nitrogen [6] | collision cross section in nitrogen (ion source: APCI, ion mode: Positive, ion type: [M]+ (permanent cation)) | SMILES
1 | 143.3 Å² | – | – | – | – | – | – | C=C(C)C(=O)NCCC[N+](C)(C)C
2 | – | 211.8 Å² | 211.5 Å² | 203.4 Å² | – | – | – | CC(C)(C)c1csc(-c2cc3cc(OCc4ccccc4CC(=O)O)ccc3o2)n1
3 | – | 196.9 Å² | – | 191.5 Å² | 201 Å² | – | – | CC(C)(O)c1ccc(CNC(=O)c2cccnc2Oc2ccc3nonc3c2)cc1
4 | – | 201.1 Å² | – | 190.4 Å² | 196.7 Å² | – | – | CC(C)(O)c1ccc(CNC(=O)c2cccnc2Oc2ccc(F)cc2)cc1
5 | – | 177.3 Å² | 177 Å² | 196.3 Å² | 178.7 Å² | – | – | CC(C)c1nnc2ccc(-c3ocnc3-c3cc(F)ccc3F)cn12
6 | – | 190.8 Å² | 190.6 Å² | 186.3 Å² | – | – | – | Cc1oc(-c2ccccc2)nc1CCOc1cccc2c1ccn2CCC(=O)O
7 | – | 180.2 Å² | 180 Å² | – | 181.1 Å² | 180.3 Å² | – | Cc1[nH]nc2c1N=C(c1ccccc1Cl)c1cc([N+](=O)[O-])ccc1N2
8 | – | 184.3 Å² | 184.3 Å² | 181.8 Å² | 193.9 Å² | 190.7 Å² | – | Cc1nc(-c2ccccn2)ncc1C(=O)Nn1cc(C)c2cc(F)ccc21
9 | – | 192.3 Å² | 192.4 Å² | 199.7 Å² | 199.2 Å² | – | – | Cc1ncc([C@@H](CCCCCCc2ccc3c(n2)NCCC3)CC(=O)O)cn1
10 | – | 206 Å² | 205.4 Å² | – | 213.8 Å² | – | – | CCc1nn(C2CCCCC2)c2cc([C@]3(C#N)CC[C@@H](C(=O)O)CC3)ccc12
11 | – | 245 Å² | 244.1 Å² | 240.5 Å² | 248.6 Å² | 239.9 Å² | – | CCCC[C@H]1CN(CC2CCOCC2)C(=O)OC12CCN(C1(C)CCN(C(=O)c3c(C)ncnc3C)CC1)CC2
12 | – | 197 Å² | 196.8 Å² | 205.8 Å² | 204.3 Å² | – | – | CCCCc1nc2cccnc2n1Cc1ccc(-c2ccccc2-c2nnn[nH]2)cc1
13 | – | 209 Å² | 199.1 Å² | 201 Å² | – | – | – | CCCN(C1CCN(C(=O)C2CCNCC2)CC1)[C@@H]1CCc2ccc(OC)cc2C1
14 | – | 186.4 Å² | 186.4 Å² | 194.8 Å² | – | – | – | CCN(C(=O)c1cc(C)cc(OC[C@H](C)Nc2ccncc2)c1)C(C)C
15 | – | 196.9 Å² | 197 Å² | 198.8 Å² | – | – | – | CCN(CC)CCNc1ccc(CNC=O)c2sc3ccc(OC)cc3c(=O)c12
16 | – | 170.8 Å² | 170.3 Å² | – | 172.9 Å² | – | – | CCn1nc(C)c2c1C(=O)NCC(c1ccc(O)cc1)=N2
17 | – | 192.3 Å² | 192.2 Å² | 198.6 Å² | 194.5 Å² | – | – | CCOC(=O)COc1ccc2c(c1)CC(NCC(O)c1cccc(Cl)c1)CC2 (stereo unspecified)
18 | – | 212.8 Å² | 231.4 Å² | 230.3 Å² | 225.6 Å² | – | – | CCOC(=O)c1ccc([C@H]2CC[C@H](NC[C@H](O)COc3ccc(O)c(NS(C)(=O)=O)c3)CC2)cc1
19 | – | 184.3 Å² | 183.9 Å² | 187 Å² | 183.9 Å² | – | – | CCOc1ccc2[nH]cc(C(=O)NCc3ccccc3)c(=O)c2n1
20 | – | 228.4 Å² | 228.8 Å² | 233.2 Å² | 232.5 Å² | – | – | CCOc1cccc(-n2cc(C(=O)N3CCN(c4cc(C(=O)O)c5ccccc5c4)CC3)nc2-c2ccc(C)cc2)c1
21 | – | 208.4 Å² | 208.2 Å² | 214.4 Å² | – | – | – | CC[C@H]1CC[C@H](NCc2cc3c(cc2OC)[C@H]2C[C@H]2C(=O)N3C)[C@H](c2ccccc2)N1
22 | – | 245.7 Å² | 244.6 Å² | 246.4 Å² | 232.7 Å² | – | – | Cc1cc(F)ccc1-c1cc(N2CC[C@@H](O)[C@H]2CO)ncc1N(C)C(=O)C(C)(C)c1cc(C(F)(F)F)cc(C(F)(F)F)c1
23 | – | 244.9 Å² | 245.5 Å² | 241.3 Å² | – | – | – | CN(C)C(=O)C1(N2CCCCC2)CCN(CC[C@@]2(c3ccc(Cl)c(Cl)c3)CN(C(=O)c3ccccc3)CCO2)CC1
24 | – | 252.9 Å² | 252.5 Å² | 256.5 Å² | 246.6 Å² | – | – | CN(C)C(=O)NC1(c2ccccc2)CCN(CCC[C@]2(c3ccc(Cl)c(Cl)c3)CCCN(C(=O)c3ccccc3)C2)CC1

Row | collision cross section in nitrogen [1] | collision cross section in nitrogen [2] | collision cross section in nitrogen [3] | collision cross section in nitrogen [4] | collision cross section in nitrogen [5] | collision cross section in nitrogen [6] | collision cross section in nitrogen (ion source: APCI, ion mode: Positive, ion type: [M]+ (permanent cation)) | SMILES
25 | – | 241.2 Å² | 241.6 Å² | 243 Å² | – | – | – | CN(C)C(=O)NC1(c2ccccc2)CCN(CC[C@@]2(c3ccc(F)c(F)c3)CN(C(=O)c3ccccc3)CCO2)CC1
26 | 262.3 Å² | – | – | – | – | – | 260.7 Å² | CN(C[C@@H](CC[N+]12CCC(C3CCCCC3)(CC1)CC2)c1ccc(Cl)c(Cl)c1)C(=O)c1cc(C(F)(F)F)cc(C(F)(F)F)c1
27 | – | 219.5 Å² | 218.9 Å² | 219.1 Å² | 220.2 Å² | 215.4 Å² | – | CN1C(=O)N(c2ccccc2Br)Cc2cnc(Nc3ccc4c(c3)OCC(CO)O4)nc21 (stereo unspecified)
28 | – | 189.6 Å² | 189.1 Å² | 200.2 Å² | 190.8 Å² | – | – | Cc1ccccc1N=Nc1ccc(NC(=O)c2ccnn2C)c(C)c1
29 | – | 216.1 Å² | 216.2 Å² | 223.6 Å² | – | – | – | CNC(=O)[C@H]1O[C@@H](n2cnc3c(NCc4cc(Cl)ccc4OCc4cc(C)no4)ncnc32)[C@H](O)[C@@H]1N
30 | – | 182.7 Å² | 183.3 Å² | 190.7 Å² | – | – | – | COc1ccc(OC(F)(F)F)cc1CN[C@H]1CCCN[C@H]1c1ccccc1
31 | – | 207 Å² | 206.7 Å² | 206.2 Å² | 210.8 Å² | – | – | COc1ccc(C(=O)Nc2nc3ccccc3c(NCc3ccccc3)c2C#N)cc1
32 | – | 234.1 Å² | 235.6 Å² | 239.2 Å² | 235.2 Å² | – | – | COCCOc1cc2cc(C(=O)NC3CCN(C(C)C)CC3)n(CC(=O)Nc3ccc(Cl)cn3)c2cn1
33 | – | 258.5 Å² | 258.2 Å² | 259.5 Å² | 258.7 Å² | – | – | COc1cc(-c2nc(NC(=O)c3cc4cc(C)cc(C)c4n3CC(=O)O)sc2CCC2CCCCC2)c(OC)cc1Cl
34 | – | 266.1 Å² | 267 Å² | 277.4 Å² | 271.5 Å² | – | – | COc1ccc2cc(S(=O)(=O)N[C@H](CC(=O)N[C@H](Cc3ccc(CN4[C@H](C)CCC[C@@H]4C)cc3)C(=O)N(C)C(C)C)c3ccc4c(c3)OCO4)ccc2c1
35 | – | 185.2 Å² | 185.6 Å² | 196.9 Å² | – | – | – | COc1cccc(-c2ccc(/C=C\CN3CCCCCC3)cc2Cl)c1
36 | – | 191.2 Å² | 190.4 Å² | 183.4 Å² | 192.5 Å² | – | – | Cc1nc(C)nc(N2C[C@@H](C)N(c3ccnc([C@@H](C)O)n3)[C@@H](C)C2)n1
37 | – | 202.2 Å² | 202.4 Å² | 205.3 Å² | 209.3 Å² | – | – | Cc1cc(CCN2CCN(c3nsc4ccccc34)CC2)cc2c1NC(=O)CC2(C)C
38 | – | 214.2 Å² | 213.8 Å² | 211 Å² | 209.1 Å² | – | – | Cc1cc2c(cc1C(F)(F)F)N(C(=O)Nc1ccc(Oc3cccnc3C)nc1)CC2
39 | – | 225.5 Å² | 224.8 Å² | 236.2 Å² | 226.8 Å² | – | – | Cc1nc(-c2ccc3c(c2)CCN(CCC2CCC(NC(=O)/C=C/c4ccc(F)cc4)CC2)CC3)no1 (stereo unspecified)
40 | – | 196.7 Å² | 196.8 Å² | 188.1 Å² | – | – | – | Cc1nccn1-c1ccc(Sc2cccc(C3(C(N)=O)CCOCC3)c2)cc1
41 | – | 158.5 Å² | 159.3 Å² | – | – | – | – | Clc1cc(Cl)c2c(c1)N=C1CCCCCN1C2
42 | – | 192.8 Å² | 192.4 Å² | 205.6 Å² | 193.4 Å² | – | – | Cn1c(=O)cc(Oc2ccc(F)cc2F)c2cnc(NCC(C)(C)O)nc21
43 | – | 145.7 Å² | 146.3 Å² | 148.3 Å² | – | – | – | N=C(N)NC(=N)NCCc1ccccc1
44 | – | 189.4 Å² | 189.1 Å² | 190.9 Å² | 195.5 Å² | – | – | NC(=O)c1nc(-c2cccc(-c3cc(F)ccc3OCC(F)(F)C(F)(F)F)c2)n[nH]1
45 | – | 214.3 Å² | 213.7 Å² | 213.7 Å² | – | – | – | O=C1c2ccccc2C(=O)N1CCc1noc(-c2ccc(CN3CCCCCC3)s2)n1
46 | – | 201.3 Å² | 200.4 Å² | 205.9 Å² | 202.6 Å² | – | – | O=C(O)c1cccc(N(Cc2cccnc2)c2ccc(OC(F)F)c(OC(F)F)c2)c1
47 | – | 197.6 Å² | 197.1 Å² | 191 Å² | – | – | – | OCC(CO)n1cnc(-c2ccc(F)cc2)c1-c1ccnc(Oc2ccccc2)n1

Row | SMILES | collision cross section in nitrogen [1] | collision cross section in nitrogen [2] | collision cross section in nitrogen [3] | collision cross section in nitrogen [4] | collision cross section in nitrogen [5] | collision cross section in nitrogen [6] | collision cross section in nitrogen (ion source: APCI, ion mode: Positive, ion type: [M]+ (permanent cation))
48 | CC(C)(c1ccccc1)c1cc(-n2nc3ccccc3n2)c(O)c(C(C)(C)c2ccccc2)c1 | – | 218 Å² | 218 Å² | 223.4 Å² | 222.1 Å² | – | –
49 | CC(C)(O)c1cnn2c(-c3ccc(F)c(-c4c(F)cccc4C#N)c3)cnc2n1 | – | 197.1 Å² | 196.4 Å² | 209.2 Å² | 198.6 Å² | – | –
50 | CC(Cc1ccc(OCC(=O)O)cc1)NCC(O)c1csc(C(F)(F)F)n1 (stereo unspecified) | – | 181.1 Å² | 181.4 Å² | 181.2 Å² | 184.7 Å² | – | –
51 | CCN1CCC2(CC1)COc1cc3c(cc12)N(C(=O)c1ccc(-c2ccc(-c4nnc(C)o4)cc2C)cc1)CC3 | – | 229.6 Å² | 229.1 Å² | 264.1 Å² | – | – | –
52 | COc1cc(C=O)cc2c1[C@H](COC(N)=O)[C@]1(OC(C)=O)ON2C[C@H]2[C@@H]1N2C(C)=O | – | 191.3 Å² | 192.1 Å² | 190.5 Å² | – | – | –
53 | O=C(Nc1ccc2[nH]ccc2c1)c1cc2cc(F)ccc2n1Cc1cccc(F)c1 | – | 195.9 Å² | 195.7 Å² | 202.1 Å² | 193.8 Å² | – | –
54 | Nc1cc2c3c(c1)C(c1ccccc1)=N[C@@H](NC(=O)c1cccnc1)C(=O)N3CC2 | – | 201.2 Å² | 200.1 Å² | 209.2 Å² | – | – | –
55 | O=C(N[C@H]1CN2CCC1CC2)c1ccc2c(c1)OCCO2 | – | 175.9 Å² | 175.7 Å² | – | 177.1 Å² | – | –
56 | OC(Cc1ccccc1Cl)(Cn1cncn1)C1(Cl)CC1 (stereo unspecified) | – | 167.3 Å² | 167 Å² | 184.1 Å² | – | – | –
